From patent US20250221998A1, “DISCOVERY OF COVALENT EGFR INHIBITOR THROUGH CYSTEINE 775” (Dana-Farber Cancer Institute, Inc., priority 2022, published 2025)

Columns and labels:
[1] = target: EGFR L858R/C797S Ba/F3 cells (Homo sapiens, UniProt P00533, C797S/L858R, cells depend on it); assay: Ba/F3 cell proliferation (Cell Titer Glo), EGFR L858R/C797S; assay type: cell-based, murine; details: 72 hours exposure, read-out: L858R/C797S (μM), inhibitory activity against EGFR mutants
From the text: (§1) The EGFR mutant L858R Ba/F3 cells have been previously described (Zhou, W., et al. Nature 462, 2009, 1070-1074). The EGFR C797S and C775S mutations were introduced via site directed mutagenesis using the Quick Change Site-Directed Mutagenesis kit into a vector containing EGFR L858R mutation (Stratagene; La Jolla, CA) according to the manufacturer's instructions. All constructs were confirmed by DNA sequencing. The constructs were then shuttled into the retroviral vector JP1540 by either using the Cre-recombination system (Agilent Technologies, Santa Clara, CA) or the In-fusion HD Cloning kit (Takara Bio USA, Inc.; Mountain view, CA). Ba/F3 cells were then infected with retrovirus per standard protocols, as described previously (Zhou, et al, Nature 2009). Stable clones were obtained by selection in puromycin (2 ug/ml). All BaF/3 mutant cells were maintained in RPMI 1640 (Cellgro; Mediatech Inc., Herndon, CA) supplemented with 10% FBS, 100 units/mL penicillin, 100 units/mL streptomycin.
(§2) Growth and inhibition of growth was assessed by the Cell Titer Glo assay (Promega, Madison, WI) and was performed according to the manufacturer's instructions. The Cell Titer Glo assay is a luminescence-based method used to determine the number of viable cells based on quantitation of the ATP present, which is directly proportional to the amount of metabolically active cells present. Ba/F3 cells of different EGFR genotypes were exposed to compounds for 72 hours and the number of cells used per experiment was determined empirically as has been previously established (Zhou, et al., Nature 2009). All experimental points were set up in triplicates in 384-well plates. […] The curves were fitted using a non-linear regression model with a sigmoidal dose response.
(§3) For inhibitory activity against EGFR mutants, the following designations are used: ≤0·25 μM=A, 0·25 μM˜0.5 μM=B, 0.5 μM˜2.5 μM=C, ≥2.5 μM=D.

[2] = target: EGFR mutant L858R Ba/F3 cells (Homo sapiens, UniProt P00533, L858R, cells depend on it); assay: Ba/F3 cell proliferation (Cell Titer Glo), EGFR L858R; assay type: cell-based, murine; details: 72 hours exposure, read-out: L858R BaF3 (μM), inhibitory activity against EGFR mutants
From the text: as §1, §2, §3

Sequence of EGFR L858R/C797S Ba/F3 cells (P00533 whole entry C797S/L858R, the tested form may be a part): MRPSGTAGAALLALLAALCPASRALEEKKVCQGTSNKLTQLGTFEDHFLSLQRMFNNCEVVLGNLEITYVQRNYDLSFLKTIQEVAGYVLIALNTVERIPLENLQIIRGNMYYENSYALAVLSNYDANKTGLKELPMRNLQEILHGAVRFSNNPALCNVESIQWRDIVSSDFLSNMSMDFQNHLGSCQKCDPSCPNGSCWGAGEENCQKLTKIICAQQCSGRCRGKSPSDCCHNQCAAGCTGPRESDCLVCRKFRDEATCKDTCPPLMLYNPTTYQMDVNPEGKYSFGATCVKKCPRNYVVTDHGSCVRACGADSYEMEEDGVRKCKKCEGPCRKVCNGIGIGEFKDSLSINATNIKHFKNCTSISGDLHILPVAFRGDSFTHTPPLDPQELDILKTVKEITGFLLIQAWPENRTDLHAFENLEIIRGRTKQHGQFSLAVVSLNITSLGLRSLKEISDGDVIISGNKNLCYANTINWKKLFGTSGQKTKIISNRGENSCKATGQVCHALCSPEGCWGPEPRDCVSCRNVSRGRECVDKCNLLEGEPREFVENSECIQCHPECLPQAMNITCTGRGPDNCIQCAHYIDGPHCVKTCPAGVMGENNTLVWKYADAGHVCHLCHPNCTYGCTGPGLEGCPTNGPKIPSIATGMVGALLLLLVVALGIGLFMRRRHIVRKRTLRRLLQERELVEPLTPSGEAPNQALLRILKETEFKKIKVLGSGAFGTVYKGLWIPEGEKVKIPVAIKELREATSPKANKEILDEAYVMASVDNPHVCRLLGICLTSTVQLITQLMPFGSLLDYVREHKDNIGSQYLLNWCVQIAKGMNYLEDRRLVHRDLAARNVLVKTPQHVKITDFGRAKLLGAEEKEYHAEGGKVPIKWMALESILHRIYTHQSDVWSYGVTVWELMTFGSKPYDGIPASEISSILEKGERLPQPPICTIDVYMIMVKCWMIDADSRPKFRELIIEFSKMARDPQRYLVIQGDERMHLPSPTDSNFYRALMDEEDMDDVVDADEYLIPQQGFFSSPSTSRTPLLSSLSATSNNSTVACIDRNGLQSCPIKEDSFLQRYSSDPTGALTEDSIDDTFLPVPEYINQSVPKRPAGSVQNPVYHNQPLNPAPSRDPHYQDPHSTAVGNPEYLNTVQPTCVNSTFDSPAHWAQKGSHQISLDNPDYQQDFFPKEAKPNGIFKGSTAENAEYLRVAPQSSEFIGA
Sequence of EGFR mutant L858R Ba/F3 cells (P00533 whole entry L858R): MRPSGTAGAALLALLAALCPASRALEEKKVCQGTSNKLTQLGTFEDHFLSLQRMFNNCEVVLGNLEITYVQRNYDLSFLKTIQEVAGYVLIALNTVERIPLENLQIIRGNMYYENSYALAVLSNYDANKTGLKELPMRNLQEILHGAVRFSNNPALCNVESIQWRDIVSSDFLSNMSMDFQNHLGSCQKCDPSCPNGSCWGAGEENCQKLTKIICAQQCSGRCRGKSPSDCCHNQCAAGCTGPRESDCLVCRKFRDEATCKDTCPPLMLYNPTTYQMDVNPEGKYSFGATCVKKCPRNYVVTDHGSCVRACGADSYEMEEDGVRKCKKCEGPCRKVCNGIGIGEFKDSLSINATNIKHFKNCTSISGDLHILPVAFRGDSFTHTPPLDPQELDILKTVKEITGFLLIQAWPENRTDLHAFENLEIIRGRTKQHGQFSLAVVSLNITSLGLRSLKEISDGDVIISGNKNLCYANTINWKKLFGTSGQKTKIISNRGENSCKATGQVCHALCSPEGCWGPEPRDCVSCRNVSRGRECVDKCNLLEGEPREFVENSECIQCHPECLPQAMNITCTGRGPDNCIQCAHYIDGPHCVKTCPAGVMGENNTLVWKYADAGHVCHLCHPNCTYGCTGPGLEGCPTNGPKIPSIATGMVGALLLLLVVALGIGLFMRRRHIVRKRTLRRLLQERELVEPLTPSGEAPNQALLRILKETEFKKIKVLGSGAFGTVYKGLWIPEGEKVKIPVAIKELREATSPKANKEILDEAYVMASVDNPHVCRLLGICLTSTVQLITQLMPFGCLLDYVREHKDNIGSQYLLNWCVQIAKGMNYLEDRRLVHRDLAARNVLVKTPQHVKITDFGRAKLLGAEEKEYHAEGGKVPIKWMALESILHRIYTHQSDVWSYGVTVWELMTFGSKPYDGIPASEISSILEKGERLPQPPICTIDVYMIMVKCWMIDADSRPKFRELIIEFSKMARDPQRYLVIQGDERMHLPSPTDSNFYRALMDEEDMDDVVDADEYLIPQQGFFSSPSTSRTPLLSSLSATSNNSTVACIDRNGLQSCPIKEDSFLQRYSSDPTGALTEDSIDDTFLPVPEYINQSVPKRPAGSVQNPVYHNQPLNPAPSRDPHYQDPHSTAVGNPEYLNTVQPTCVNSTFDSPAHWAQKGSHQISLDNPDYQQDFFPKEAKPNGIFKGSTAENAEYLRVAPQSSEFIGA

Row | Compound | GI50 [1] [µM] | GI50 [2] [µM]
1 | C=CC(=O)N1CCN(c2cc3cnc(Nc4ccc(OCCN(C)C)cc4)nc3n(-c3cccnc3)c2=O)c2cccc(C)c21 [Compound 067] | ≤ 0.25 | ≤ 0.25
2 | C=CC(=O)N1CCN(c2cc3cnc(Nc4ccc(OCCN(C)C)cc4OC)nc3n(C)c2=O)c2cccc(C)c21 [Compound 068] | ≤ 0.25 | ≤ 0.25
3 | C=CC(=O)N1CCN(c2cc3cnc(Nc4cc5n(c4)CCN(C)C5=O)nc3n(C)c2=O)c2cccc(C)c21 [Compound 073, 8-methyl-2-[(2-methyl-1-oxo-3,4-dihydropyrrolo[1,2-a]pyrazin-7-yl)amino]-6-(5-methyl-4-prop-2-enoyl-2,3-dihydroquinoxalin-1-yl)pyrido[2,3-d]pyrimidin-7-one] | ≤ 0.25 | ≤ 0.25
4 | C=CC(=O)N1CCN(c2cc3cnc(Nc4ccc(OCCN(C)C)cc4)nc3n(C)c2=O)c2cc(O)ccc21 [Compound 078, 2-[4-[2-(dimethylamino)ethoxy]anilino]-6-(7-hydroxy-4-prop-2-enoyl-2,3-dihydroquinoxalin-1-yl)-8-methyl-pyrido[2,3-d]pyrimidin-7-one] | ≤ 0.25 | ≤ 0.25
5 | C=CC(=O)N1CCN(c2cc3cnc(N)nc3n(-c3ccc(OCCN(C)C)cc3)c2=O)c2cccc(C)c21 [Compound 080, 2-amino-8-[4-[2-(dimethylamino)ethoxy]phenyl]-6-(5-methyl-4-prop-2-enoyl-2,3-dihydroquinoxalin-1-yl)pyrido[2,3-d]pyrimidin-7-one] | ≤ 0.25 | ≤ 0.25
6 | C=CC(=O)N1CCN(c2cc3cnc(NC)nc3n(-c3ccc(OCCN(C)C)cc3)c2=O)c2cccc(C)c21 [Compound 081, 8-[4-[2-(dimethylamino)ethoxy]phenyl]-2-(methylamino)-6-(5-methyl-4-prop-2-enoyl-2,3-dihydroquinoxalin-1-yl)pyrido[2,3-d]pyrimidin-7-one] | ≤ 0.25 | ≤ 0.25
7 | C=CC(=O)N1CCN(c2cc3cnc(N)nc3n([C@H]3CC[C@H](OC)CC3)c2=O)c2cccc(C)c21 [Compound 086, 2-amino-8-(4-methoxycyclohexyl)-6-(5-methyl-4-prop-2-enoyl-2,3-dihydroquinoxalin-1-yl)pyrido[2,3-d]pyrimidin-7-one] | ≤ 0.25 | ≤ 0.25
8 | C=CC(=O)N1CCN(c2cc3cnc(N)nc3n(-c3ccc(N4CCOCC4)cc3)c2=O)c2cccc(C)c21 [Compound 089, 2-amino-6-(5-methyl-4-prop-2-enoyl-2,3-dihydroquinoxalin-1-yl)-8-(4-morpholinophenyl)pyrido[2,3-d]pyrimidin-7-one] | ≤ 0.25 | ≤ 0.25
9 | C=CC(=O)N1CCN(c2cc3cnc(N)nc3n(-c3cccc(OC)c3)c2=O)c2cccc(C)c21 [Compound 090] | 0.25 to 0.5 | ≤ 0.25
10 | C=CC(=O)N1CCN(c2cc3cnc(N)nc3n(-c3cccc(Cl)c3)c2=O)c2cccc(C)c21 [Compound 091, 2-amino-8-(3-chlorophenyl)-6-(5-methyl-4-prop-2-enoyl-2,3-dihydroquinoxalin-1-yl)pyrido[2,3-d]pyrimidin-7-one] | 0.25 to 0.5 | ≤ 0.25
11 | C=CC(=O)N1CCN(c2cc3cnc(N)nc3n(-c3ccc(OC4COC4)cc3)c2=O)c2cccc(C)c21 [Compound 093, 2-amino-6-(5-methyl-4-prop-2-enoyl-2,3-dihydroquinoxalin-1-yl)-8-[4-(oxetan-3-yloxy)phenyl]pyrido[2,3-d]pyrimidin-7-one] | 0.25 to 0.5 | ≤ 0.25

Now from value to compound:

Row | GI50 [1] [µM] | GI50 [2] [µM] | Compound
12 | ≤ 0.25 | ≤ 0.25 | C=CC(=O)N1CCN(c2cc3cnc(Nc4ccccc4)nc3n([C@H]3C[C@@H](O)C3)c2=O)c2cccc(C)c21 [Compound 069]
13 | ≤ 0.25 | ≤ 0.25 | C=CC(=O)N1CCN(c2cc3cnc(Nc4ccccc4)nc3n([C@H]3C[C@H](O)C3)c2=O)c2cccc(C)c21 [Compound 070]
14 | ≤ 0.25 | ≤ 0.25 | C=CC(=O)N1CCN(c2cc3cnc(Nc4ccc(OCCN(C)C)cc4)nc3n(C3CC(OC)C3)c2=O)c2cccc(C)c21 (centres unmarked) [Compound 071, 2-[4-[2-(dimethylamino)ethoxy]anilino]-8-(3-methoxycyclobutyl)-6-(5-methyl-4-prop-2-enoyl-2,3-dihydroquinoxalin-1-yl)pyrido[2,3-d]pyrimidin-7-one]
15 | ≤ 0.25 | ≤ 0.25 | C=CC(=O)N1CCN(c2cc3cnc(Nc4ccc(OCCN(C)C)cc4)nc3n(C3CCOC3)c2=O)c2cccc(C)c21 (centres unmarked) [Compound 072, 2-[4-[2-(dimethylamino)ethoxy]anilino]-6-(5-methyl-4-prop-2-enoyl-2,3-dihydroquinoxalin-1-yl)-8-tetrahydrofuran-3-yl-pyrido[2,3-d]pyrimidin-7-one]
16 | ≤ 0.25 | ≤ 0.25 | C=CC(=O)N1CCN(c2cc3cnc(Nc4ccc(OCCN(C)C)cc4)nc3n(C)c2=O)c2cccc(OC)c21 [Compound 074]
17 | ≤ 0.25 | ≤ 0.25 | C=CC(=O)N1CCN(c2cc3cnc(Nc4ccc(OCCN(C)C)c(F)c4)nc3n(C)c2=O)c2cccc(C)c21 [Compound 075]
18 | ≤ 0.25 | ≤ 0.25 | C=CC(=O)N1CCN(c2cc3cnc(Nc4ccc(OC5CN(C)C5)cc4)nc3n(C)c2=O)c2cccc(C)c21 [Compound 076]
19 | ≤ 0.25 | ≤ 0.25 | C=CC(=O)N1CCN(c2cc3cnc(Nc4ccc(OCCN(C)C)cc4)nc3n(C3CC(O)C3)c2=O)c2cccc(OC)c21 (centres unmarked) [Compound 077]
20 | 0.5 to 2.5 | ≤ 0.25 | C=CC(=O)N1CCN(c2cc3cnc(N)nc3n(-c3ccc(OCCN(C)C)nc3)c2=O)c2cccc(C)c21 [Compound 079]
21 | ≤ 0.25 | ≤ 0.25 | C=CC(=O)N1CCN(c2cc3cnc(NC4CC4)nc3n(-c3ccc(OCCN(C)C)cc3)c2=O)c2cccc(C)c21 [Compound 082, 2-(cyclopropylamino)-8-[4-[2-(dimethylamino)ethoxy]phenyl]-6-(5-methyl-4-prop-2-enoyl-2,3-dihydroquinoxalin-1-yl)pyrido[2,3-d]pyrimidin-7-one]
22 | 0.5 to 2.5 | 0.5 to 2.5 | C=CC(=O)N1CCN(c2cc3cnc(NC4CC4)nc3n(C)c2=O)c2cccc(C)c21 [Compound 083, 2-(cyclopropylamino)-8-methyl-6-(5-methyl-4-prop-2-enoyl-2,3-dihydroquinoxalin-1-yl)pyrido[2,3-d]pyrimidin-7-one]
23 | ≤ 0.25 | ≤ 0.25 | C=CC(=O)N1CCN(c2cc3cnc(Nc4ccccc4)nc3n(C3CC(OC)C3)c2=O)c2cccc(C)c21 (centres unmarked) [Compound 084, 2-anilino-8-(3-methoxycyclobutyl)-6-(5-methyl-4-prop-2-enoyl-2,3-dihydroquinoxalin-1-yl)pyrido[2,3-d]pyrimidin-7-one]
24 | ≥ 2.5 | ≥ 2.5 | C=CC(=O)N1CCN(c2cc3cnc(Nc4cc5n(c4)CCN(C)C5)nc3n(C)c2=O)c2cccc(C)c21 [Compound 085, 8-methyl-2-[(2-methyl-3,4-dihydro-1H-pyrrolo[1,2-a]pyrazin-7-yl)amino]-6-(5-methyl-4-prop-2-enoyl-2,3-dihydroquinoxalin-1-yl)pyrido[2,3-d]pyrimidin-7-one]
25 | ≤ 0.25 | ≤ 0.25 | C=CC(=O)N1CCN(c2cc3cnc(N)nc3n([C@H]3CC[C@](C)(O)CC3)c2=O)c2cccc(C)c21 [Compound 087, 6-(4-acryloyl-5-methyl-3,4-dihydroquinoxalin-1 (2H)-yl)-2-amino-8-((1r,4r)-4-hydroxy-4-methylcyclohexyl)pyrido[2,3-d]pyrimidin-7 (8H)-one]
26 | ≤ 0.25 | ≤ 0.25 | C=CC(=O)N1CCN(c2cc3cnc(N)nc3n([C@H]3CC[C@@](C)(O)CC3)c2=O)c2cccc(C)c21 [Compound 088, 6-(4-acryloyl-5-methyl-3,4-dihydroquinoxalin-1 (2H)-yl)-2-amino-8-((1s,4s)-4-hydroxy-4-methylcyclohexyl)pyrido[2,3-d]pyrimidin-7 (8H)-one]
27 | ≤ 0.25 | ≤ 0.25 | C=CC(=O)N1CCN(c2cc3cnc(N)nc3n(-c3ccc(N4CCN(C)CC4)cc3)c2=O)c2cccc(C)c21 [Compound 092, 2-amino-8-[4-(4-methylpiperazin-1-yl)phenyl]-6-(5-methyl-4-prop-2-enoyl-2,3-dihydroquinoxalin-1-yl)pyrido[2,3-d]pyrimidin-7-one]
28 | ≤ 0.25 | ≤ 0.25 | C=CC(=O)N1CCN(c2cc3cnc(N)nc3n(-c3ccc(CN4CCOCC4)cc3)c2=O)c2cccc(C)c21 [Compound 094, 2-amino-6-(5-methyl-4-prop-2-enoyl-2,3-dihydroquinoxalin-1-yl)-8-[4-(morpholinomethyl)phenyl]pyrido[2,3-d]pyrimidin-7-one]
